Experimental findings from PMC3326534 (Biochemistry, 2007) are described below.

What all share (type): binding
For test [1], the target named is T1, PrnB (Pseudomonas fluorescens, UniProt P95481, C175S/C21S/C60S). As to the kind of experiment: spectrophotometric ligand titration.
The target in test [2] is T1, PrnB. As to the kind of experiment: spectrophotometric ligand titration. The source holds these as a separate data set.
Test [3] concerns the target T1, PrnB. As to the kind of experiment: spectrophotometric ligand titration. The source holds these as a separate data set.
Test [4] concerns the target PrnB (Pseudomonas fluorescens, UniProt P95481, C21S/C60S/C175S). As to the kind of experiment: crystal structure.

Like-named read-outs stand apart in the source and are kept apart here.

T1 sequence (P95481 whole entry C175S/C21S/C60S): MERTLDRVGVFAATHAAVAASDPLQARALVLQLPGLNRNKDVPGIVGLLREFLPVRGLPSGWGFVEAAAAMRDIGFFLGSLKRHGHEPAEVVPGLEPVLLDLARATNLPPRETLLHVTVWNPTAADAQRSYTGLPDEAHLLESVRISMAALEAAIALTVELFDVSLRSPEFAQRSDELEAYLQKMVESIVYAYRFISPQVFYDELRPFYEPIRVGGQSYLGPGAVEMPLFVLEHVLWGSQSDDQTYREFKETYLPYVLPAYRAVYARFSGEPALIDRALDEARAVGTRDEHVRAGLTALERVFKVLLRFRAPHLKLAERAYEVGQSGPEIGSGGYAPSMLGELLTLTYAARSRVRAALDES
PrnB (Pseudomonas fluorescens, UniProt P95481, C21S/C60S/C175S), sequence (P95481 whole entry C21S/C60S/C175S): as the sequence (P95481 whole entry C175S/C21S/C60S) above

The Kd is a measure of binding affinity in units of concentration. A low value points to a tighter complex. Take `N[C@@H](Cc1c[nH]c2ccccc12)C(=O)O` [L-tryptophan]: binding on PrnB [1] was put at a Kd of 60 µM. Regarding `N[C@@H](Cc1c[nH]c2c(Cl)cccc12)C(=O)O` [7-Cl-L-tryptophan], the Kd at PrnB [2] stood at 4.9 µM. In the case of `N[C@H](Cc1c[nH]c2ccccc12)C(=O)O` [D-tryptophan], at PrnB [3], the Kd came to 39 µM. Regarding `NC(Cc1c[nH]c2c(Cl)cccc12)C(=O)O` (racemic) [7-Cl-D-tryptophan], at PrnB [4], the “crystal structure (2.0 Å)” value was “In the 7-Cl-D-tryptophan complex, one of the oxygen atoms of the carboxyl group is bound to the iron”.
